Active and inactive are the calls of the source. The rule behind the calls is not given here.
Columns and labels:
U-937 [1] = assay: Induction of cell cycle arrest in human U-937 cells assessed as accumulation at G2/M phase at 11 nM measured after 24 hrs by propidium iodide staining based flow cytometric analysis (reference value: 21.41%); type: functional
[2] = target: Tyrosine-protein kinase BTK (Homo sapiens) (UniProt Q06187); assay: Inhibition of BTK (unknown origin) at 0.5 uM assessed as competition rate relative to control
[3] = target: T1, Tyrosine-protein kinase JAK3 (Homo sapiens) (UniProt P52333); assay: Inhibition of human JAK3 at 0.5 uM assessed as competition rate relative to control
T1 sequence (whole entry): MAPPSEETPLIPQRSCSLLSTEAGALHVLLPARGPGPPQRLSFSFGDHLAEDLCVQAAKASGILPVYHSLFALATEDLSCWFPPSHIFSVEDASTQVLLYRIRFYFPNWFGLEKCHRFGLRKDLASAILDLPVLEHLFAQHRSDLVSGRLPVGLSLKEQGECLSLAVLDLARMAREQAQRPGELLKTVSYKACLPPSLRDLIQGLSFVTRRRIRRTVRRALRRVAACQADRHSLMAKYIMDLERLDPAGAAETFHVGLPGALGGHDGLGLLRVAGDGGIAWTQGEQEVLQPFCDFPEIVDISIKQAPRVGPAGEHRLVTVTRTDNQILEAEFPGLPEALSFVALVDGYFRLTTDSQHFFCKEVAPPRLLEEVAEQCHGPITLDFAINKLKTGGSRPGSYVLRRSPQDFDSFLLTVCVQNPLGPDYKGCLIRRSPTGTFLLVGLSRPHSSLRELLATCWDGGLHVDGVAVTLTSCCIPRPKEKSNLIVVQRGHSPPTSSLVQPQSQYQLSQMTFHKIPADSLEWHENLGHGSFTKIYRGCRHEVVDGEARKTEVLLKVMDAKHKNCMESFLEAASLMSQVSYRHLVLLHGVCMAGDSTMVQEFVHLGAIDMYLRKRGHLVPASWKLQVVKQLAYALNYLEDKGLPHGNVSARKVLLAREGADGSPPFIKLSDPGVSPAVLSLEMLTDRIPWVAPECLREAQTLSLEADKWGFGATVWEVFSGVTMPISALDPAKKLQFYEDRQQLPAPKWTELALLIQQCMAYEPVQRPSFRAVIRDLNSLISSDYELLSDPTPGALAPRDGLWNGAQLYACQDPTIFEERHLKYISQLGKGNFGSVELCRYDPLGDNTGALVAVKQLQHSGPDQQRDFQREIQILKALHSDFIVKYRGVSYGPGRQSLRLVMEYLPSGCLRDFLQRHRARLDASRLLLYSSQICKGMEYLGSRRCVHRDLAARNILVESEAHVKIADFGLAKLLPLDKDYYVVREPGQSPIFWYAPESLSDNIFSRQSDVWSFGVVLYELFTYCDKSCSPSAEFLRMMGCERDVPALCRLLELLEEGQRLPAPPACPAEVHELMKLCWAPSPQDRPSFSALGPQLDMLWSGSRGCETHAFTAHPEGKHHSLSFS

[4] = target: Tyrosine-protein kinase Tec (Homo sapiens) (UniProt P42680); assay: Inhibition of TEC (unknown origin) at 0.5 uM relative to control
[5] = target: T2, Signal transducer and activator of transcription 5A (Homo sapiens) (UniProt P42229); assay: Inhibition of STAT5 in human U-937 cells assessed as decrease in P-STAT5 phosphorylation at 200 uM pretreated for 10 hrs followed by compound washout by immunoblotting analysis; type: cell-based
T2 sequence (whole entry): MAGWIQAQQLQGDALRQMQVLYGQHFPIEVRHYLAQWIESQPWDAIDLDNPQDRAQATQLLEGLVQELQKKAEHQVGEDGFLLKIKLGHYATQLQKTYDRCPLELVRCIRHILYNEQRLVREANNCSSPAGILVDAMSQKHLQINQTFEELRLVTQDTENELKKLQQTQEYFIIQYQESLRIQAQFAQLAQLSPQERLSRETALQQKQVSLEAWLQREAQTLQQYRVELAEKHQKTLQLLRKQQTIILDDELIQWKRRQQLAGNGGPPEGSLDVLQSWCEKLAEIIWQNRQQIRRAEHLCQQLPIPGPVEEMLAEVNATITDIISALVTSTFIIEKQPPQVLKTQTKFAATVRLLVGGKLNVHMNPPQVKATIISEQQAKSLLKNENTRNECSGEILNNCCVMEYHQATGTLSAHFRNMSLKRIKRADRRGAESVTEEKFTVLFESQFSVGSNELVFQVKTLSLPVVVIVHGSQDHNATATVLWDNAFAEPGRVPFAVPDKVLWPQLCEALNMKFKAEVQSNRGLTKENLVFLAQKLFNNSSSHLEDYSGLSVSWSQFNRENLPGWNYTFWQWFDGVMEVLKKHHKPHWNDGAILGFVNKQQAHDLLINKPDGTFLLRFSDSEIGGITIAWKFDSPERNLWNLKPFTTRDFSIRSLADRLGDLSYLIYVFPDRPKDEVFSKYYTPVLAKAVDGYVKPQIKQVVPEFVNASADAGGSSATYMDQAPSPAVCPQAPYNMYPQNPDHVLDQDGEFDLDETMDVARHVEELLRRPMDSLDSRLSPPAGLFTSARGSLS

[6] = target: Receptor tyrosine-protein kinase erbB-4 (Homo sapiens) (UniProt Q15303); assay: Inhibition of HER4 (unknown origin) at 0.5 uM relative to control
[7] = target: Non-receptor tyrosine-protein kinase TYK2 (Homo sapiens, UniProt P29597); assay: Inhibition of human TYK2 at 0.5 uM relative to control
BaF3 = assay: cells; details: Mus musculus, BaF3, 72 h
[8] = Clearance in 12 hr fasted SPF Sprague-Dawley rat at 5 mg/kg, iv upon 2 hrs fasting post-administration measured upto 24 hrs; type: ADME, organism-based; details: in vivo
U-937 [9] = assay: Induction of cell cycle arrest in human U-937 cells assessed as accumulation at G0/G1 phase at 33 nM measured after 24 hrs by propidium iodide staining based flow cytometric analysis (reference value: 62.95%); type: functional
[10] = target: T3, Tyrosine-protein kinase JAK3 (Homo sapiens, UniProt P52333); assay: Inhibition of human JAK3
T3 sequence (P52333 whole entry): T1 sequence (whole entry)

U-937 [11] = assay: Induction of cell cycle arrest in human U-937 cells assessed as accumulation at G0/G1 phase at 100 nM measured after 24 hrs by propidium iodide staining based flow cytometric analysis (reference value: 62.95%); type: functional
[12] = target: Receptor-type tyrosine-protein kinase FLT3 (Homo sapiens, UniProt P36888); assay: Inhibition of human FLT3
U-937 [13] = assay: Induction of cell cycle arrest in human U-937 cells assessed as accumulation at S phase at 11 nM measured after 24 hrs by propidium iodide staining based flow cytometric analysis (reference value: 15.35%); type: functional
[14] = target: Cytoplasmic tyrosine-protein kinase BMX (Homo sapiens) (UniProt P51813); assay: Inhibition of BMX (unknown origin) at 0.5 uM assessed as competition rate relative to control
U-937 [15] = assay: Induction of cell cycle arrest in human U-937 cells assessed as accumulation at G2/M phase at 3.7 nM measured after 24 hrs by propidium iodide staining based flow cytometric analysis (reference value: 21.41%); type: functional

Sequence of Receptor tyrosine-protein kinase erbB-4 (Homo sapiens) (Q15303 whole entry): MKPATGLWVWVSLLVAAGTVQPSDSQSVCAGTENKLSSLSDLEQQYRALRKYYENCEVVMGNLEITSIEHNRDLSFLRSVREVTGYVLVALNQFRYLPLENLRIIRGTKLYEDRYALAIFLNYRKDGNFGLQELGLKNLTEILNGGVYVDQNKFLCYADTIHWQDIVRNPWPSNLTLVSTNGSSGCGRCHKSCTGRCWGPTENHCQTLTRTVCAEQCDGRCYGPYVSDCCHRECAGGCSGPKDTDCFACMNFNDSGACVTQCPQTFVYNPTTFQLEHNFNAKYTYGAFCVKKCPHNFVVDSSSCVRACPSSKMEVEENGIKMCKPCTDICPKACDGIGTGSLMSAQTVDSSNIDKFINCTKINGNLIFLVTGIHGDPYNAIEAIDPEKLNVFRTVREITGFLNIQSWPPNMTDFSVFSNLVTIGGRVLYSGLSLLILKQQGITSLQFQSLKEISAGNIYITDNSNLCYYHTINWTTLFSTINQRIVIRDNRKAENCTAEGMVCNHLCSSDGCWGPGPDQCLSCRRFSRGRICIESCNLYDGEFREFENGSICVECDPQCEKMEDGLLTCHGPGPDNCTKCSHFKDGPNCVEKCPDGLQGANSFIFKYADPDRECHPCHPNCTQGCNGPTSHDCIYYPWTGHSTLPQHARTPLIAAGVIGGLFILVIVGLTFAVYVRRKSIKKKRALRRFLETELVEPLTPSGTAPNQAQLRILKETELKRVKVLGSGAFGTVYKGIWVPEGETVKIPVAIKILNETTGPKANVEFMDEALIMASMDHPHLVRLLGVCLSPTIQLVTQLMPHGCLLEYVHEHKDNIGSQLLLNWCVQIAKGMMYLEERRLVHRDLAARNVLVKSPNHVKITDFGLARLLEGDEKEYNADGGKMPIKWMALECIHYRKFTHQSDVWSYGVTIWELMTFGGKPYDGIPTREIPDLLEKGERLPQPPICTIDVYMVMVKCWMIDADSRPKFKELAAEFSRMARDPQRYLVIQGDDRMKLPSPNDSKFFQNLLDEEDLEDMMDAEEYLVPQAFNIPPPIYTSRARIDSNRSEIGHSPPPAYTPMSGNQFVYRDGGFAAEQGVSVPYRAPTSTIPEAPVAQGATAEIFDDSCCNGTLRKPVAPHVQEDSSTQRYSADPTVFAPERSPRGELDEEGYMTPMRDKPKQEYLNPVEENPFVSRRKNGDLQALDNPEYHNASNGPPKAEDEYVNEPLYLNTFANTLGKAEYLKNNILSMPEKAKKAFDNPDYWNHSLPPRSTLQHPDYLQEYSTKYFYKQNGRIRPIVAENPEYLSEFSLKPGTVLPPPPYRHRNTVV
Sequence of Non-receptor tyrosine-protein kinase TYK2 (P29597 whole entry): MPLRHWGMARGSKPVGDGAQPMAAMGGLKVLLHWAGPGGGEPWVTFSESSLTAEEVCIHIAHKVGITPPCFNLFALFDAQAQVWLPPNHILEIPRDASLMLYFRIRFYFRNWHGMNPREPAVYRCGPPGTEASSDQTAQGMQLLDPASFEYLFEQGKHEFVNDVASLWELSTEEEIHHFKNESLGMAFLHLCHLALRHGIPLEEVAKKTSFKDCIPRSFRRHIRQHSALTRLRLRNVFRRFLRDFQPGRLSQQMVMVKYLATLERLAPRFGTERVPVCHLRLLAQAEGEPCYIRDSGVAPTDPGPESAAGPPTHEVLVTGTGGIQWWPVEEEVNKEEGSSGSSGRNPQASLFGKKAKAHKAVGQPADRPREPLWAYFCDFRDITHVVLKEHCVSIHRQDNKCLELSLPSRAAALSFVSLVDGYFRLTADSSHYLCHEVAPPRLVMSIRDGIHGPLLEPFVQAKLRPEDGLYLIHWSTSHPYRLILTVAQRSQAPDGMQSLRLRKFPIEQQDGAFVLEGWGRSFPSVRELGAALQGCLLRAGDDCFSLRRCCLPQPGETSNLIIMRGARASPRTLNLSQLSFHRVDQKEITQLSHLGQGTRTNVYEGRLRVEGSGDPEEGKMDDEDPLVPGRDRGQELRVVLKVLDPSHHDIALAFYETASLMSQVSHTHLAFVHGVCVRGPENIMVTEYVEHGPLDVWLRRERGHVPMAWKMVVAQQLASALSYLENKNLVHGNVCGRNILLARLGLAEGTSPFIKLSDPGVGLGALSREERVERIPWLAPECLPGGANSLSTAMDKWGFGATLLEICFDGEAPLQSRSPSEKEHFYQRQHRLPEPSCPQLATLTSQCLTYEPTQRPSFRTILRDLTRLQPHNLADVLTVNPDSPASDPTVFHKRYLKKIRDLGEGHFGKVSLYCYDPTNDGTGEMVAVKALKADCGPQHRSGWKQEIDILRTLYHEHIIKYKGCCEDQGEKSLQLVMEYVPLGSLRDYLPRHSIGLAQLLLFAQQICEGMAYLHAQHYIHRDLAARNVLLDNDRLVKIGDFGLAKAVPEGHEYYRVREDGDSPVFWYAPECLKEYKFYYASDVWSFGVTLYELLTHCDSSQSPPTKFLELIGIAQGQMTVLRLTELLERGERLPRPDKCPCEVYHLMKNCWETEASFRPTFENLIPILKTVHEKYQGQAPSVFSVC
Sequence of Receptor-type tyrosine-protein kinase FLT3 (P36888 whole entry): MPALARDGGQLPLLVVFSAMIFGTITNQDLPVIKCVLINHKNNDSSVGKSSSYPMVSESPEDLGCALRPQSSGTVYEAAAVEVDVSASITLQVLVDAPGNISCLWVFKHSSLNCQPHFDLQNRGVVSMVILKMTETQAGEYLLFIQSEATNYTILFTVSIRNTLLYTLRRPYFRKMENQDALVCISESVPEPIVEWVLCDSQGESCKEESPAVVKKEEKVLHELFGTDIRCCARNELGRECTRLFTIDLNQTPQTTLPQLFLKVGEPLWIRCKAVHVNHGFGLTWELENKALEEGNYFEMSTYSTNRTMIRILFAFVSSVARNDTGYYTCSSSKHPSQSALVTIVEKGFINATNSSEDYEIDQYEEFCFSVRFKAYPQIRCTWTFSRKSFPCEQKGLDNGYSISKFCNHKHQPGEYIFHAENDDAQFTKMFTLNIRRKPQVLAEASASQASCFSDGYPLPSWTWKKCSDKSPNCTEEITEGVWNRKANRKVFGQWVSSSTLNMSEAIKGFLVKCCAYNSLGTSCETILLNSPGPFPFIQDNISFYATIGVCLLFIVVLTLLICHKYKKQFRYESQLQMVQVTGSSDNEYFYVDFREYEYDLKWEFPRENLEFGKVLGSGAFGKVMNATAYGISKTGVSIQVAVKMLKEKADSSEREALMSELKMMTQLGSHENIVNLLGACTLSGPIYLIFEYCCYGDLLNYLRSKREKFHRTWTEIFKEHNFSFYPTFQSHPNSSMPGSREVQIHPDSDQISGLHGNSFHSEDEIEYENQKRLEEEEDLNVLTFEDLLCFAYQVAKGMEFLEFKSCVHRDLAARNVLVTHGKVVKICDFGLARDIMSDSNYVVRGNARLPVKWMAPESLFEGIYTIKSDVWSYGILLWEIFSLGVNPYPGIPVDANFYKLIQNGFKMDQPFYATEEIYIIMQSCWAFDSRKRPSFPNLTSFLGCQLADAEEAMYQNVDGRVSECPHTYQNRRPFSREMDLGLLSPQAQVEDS
Sequence of Cytoplasmic tyrosine-protein kinase BMX (Homo sapiens) (P51813 whole entry): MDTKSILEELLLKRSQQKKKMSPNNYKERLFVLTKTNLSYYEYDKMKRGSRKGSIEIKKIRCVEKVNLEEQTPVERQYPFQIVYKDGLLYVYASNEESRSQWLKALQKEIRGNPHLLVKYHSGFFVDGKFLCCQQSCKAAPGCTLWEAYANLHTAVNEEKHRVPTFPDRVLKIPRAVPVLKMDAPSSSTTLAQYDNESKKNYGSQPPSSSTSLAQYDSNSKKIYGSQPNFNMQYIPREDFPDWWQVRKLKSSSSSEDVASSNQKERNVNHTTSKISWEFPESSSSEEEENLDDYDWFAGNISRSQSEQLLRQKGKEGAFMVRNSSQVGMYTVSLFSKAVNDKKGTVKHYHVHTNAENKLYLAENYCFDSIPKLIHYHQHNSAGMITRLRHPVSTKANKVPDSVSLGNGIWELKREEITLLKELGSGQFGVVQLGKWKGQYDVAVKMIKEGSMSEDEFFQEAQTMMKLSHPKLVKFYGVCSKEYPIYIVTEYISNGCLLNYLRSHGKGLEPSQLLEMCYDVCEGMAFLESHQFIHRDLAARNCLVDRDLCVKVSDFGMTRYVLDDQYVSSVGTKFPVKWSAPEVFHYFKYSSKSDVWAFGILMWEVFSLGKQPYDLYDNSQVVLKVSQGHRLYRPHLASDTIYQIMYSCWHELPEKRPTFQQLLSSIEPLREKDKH
Sequence of Tyrosine-protein kinase BTK (Homo sapiens) (Q06187 whole entry): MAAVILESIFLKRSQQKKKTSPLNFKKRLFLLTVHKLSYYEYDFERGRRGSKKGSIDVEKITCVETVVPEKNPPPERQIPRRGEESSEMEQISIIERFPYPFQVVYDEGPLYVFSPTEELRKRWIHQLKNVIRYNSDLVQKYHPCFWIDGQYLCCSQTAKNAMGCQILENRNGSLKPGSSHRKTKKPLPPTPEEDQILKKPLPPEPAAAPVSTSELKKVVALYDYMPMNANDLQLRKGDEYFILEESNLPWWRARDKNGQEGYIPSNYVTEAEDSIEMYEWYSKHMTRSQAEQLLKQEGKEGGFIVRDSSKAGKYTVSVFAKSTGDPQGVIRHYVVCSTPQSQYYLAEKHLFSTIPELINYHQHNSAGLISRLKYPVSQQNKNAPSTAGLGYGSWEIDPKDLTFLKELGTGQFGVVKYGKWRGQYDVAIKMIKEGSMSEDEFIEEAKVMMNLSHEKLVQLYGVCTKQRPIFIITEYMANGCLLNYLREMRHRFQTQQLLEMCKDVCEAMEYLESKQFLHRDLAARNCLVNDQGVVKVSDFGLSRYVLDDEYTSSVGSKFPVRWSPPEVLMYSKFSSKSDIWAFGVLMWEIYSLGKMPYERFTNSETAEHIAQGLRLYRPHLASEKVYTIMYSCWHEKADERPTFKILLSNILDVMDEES

inhibition [2]: 40%
inhibition [3]: 90%
inhibition [4]: 99%
inhibition [5]: Active
inhibition [6]: 106%
inhibition [7]: 36%
IC50 (BaF3): 22.9 nM
CL [8]: 155.22%
IC50 [10]: 8 nM
IC50 [12]: 132 nM
inhibition [14]: 40%
Structure (SMILES): C=CC(=O)Nc1cc(Nc2ncc(Cl)c(O[C@@H]3CO[C@H]4[C@@H]3OC[C@H]4OC)n2)ccc1N(C)CCN(C)C
Activity (U-937 [1]): 21.98%
Activity (U-937 [9]): 64.92%
Activity (U-937 [11]): 72.06%
Activity (U-937 [13]): 15.18%
Activity (U-937 [15]): 23.11%

From ChEMBL document CHEMBL5137068, “Discovery of Hexahydrofuro[3,2-b]furans as New Kinase-Selective and Orally Bioavailable JAK3 Inhibitors for the Treatment of Leukemia Harboring a JAK3 Activating Mutant” (J Med Chem, 2022)
